From patent US20110110930A1, “Mitogen-Activated Protein Kinase Kinase Kinase 14 (MAP3K14) Polymorphisms As Indicators of Subject Outcome in Critically Ill Subjects” (priority 2007, published 2011)
Entries after “also recorded” stand apart in the source; their conditions may differ.

Test system: ICU subjects with severe sepsis
Assay: Response to steroids in ICU severe sepsis subjects by MAP3K14 rs7222094 genotype (28-day survival, days alive and free of organ dysfunction)
Assay type: in vivo, human
Conditions: for SURV (28-Day Survival): % (N survived); for Delta SURV (28-Day Survival): treat (steroid-treated) minus cont (steroid untreated controls), difference of % survival; for Delta COAG.DAF (Days alive and free of coagulation dysfunction) / Delta CVS.DAF (Days alive and free of cardiovascular dysfunction) / Delta DA (Days alive) / Delta INR.DAF (Days alive and free of international normalized ratio >1.5) / Delta LIVER.DAF (Days alive and free of any type of hepatic dysfunction) / Delta PRESS.DAF (Days alive and free of any vasopressors) / Delta RENAL.DAF (Days alive and free of any type of renal dysfunction) / Delta RENSUP.DAF (Days alive and free of renal support) / Delta RESP.DAF (Days alive and free of respiratory dysfunction) / Delta VENT.DAF (Days alive and free of mechanical ventilators): treat minus cont (steroid untreated controls), difference of medians
Protocol: All subjects admitted to the ICU of St. Paul's Hospital (SPH) were screened for study inclusion. SPH ICU is a mixed medical-surgical ICU in a tertiary care, university-affiliated teaching hospital. Subjects were included in the study if they met at least two out of four SIRS criteria: 1) fever (>38° C.) or hypothermia (<36° C.), 2) tachycardia (>90 beats/minute), 3) tachypnea (>20 breaths/minute), PaCO2<32 mm Hg, or need for mechanical ventilation, and 4) leukocytosis (total leukocyte count>12,000 mm^3) or leukopenia (<4,000 mm^3). Subjects were included in the analysis if they met the diagnostic criteria for septic shock (sepsis and cardiovascular dysfunction (as defined by Brussels scoring system) and one other organ dysfunction) on admission to the ICU. Subjects were excluded if blood could not be obtained for genotype analysis. Baseline characteristics (age, gender, admission APACHE II score (KNAUS W A. et al. Crit. Care Med. (1985) 13:818-829), together with medical vs. surgical diagnosis KNAUS W A. et al. Chest (1991) 100:1619-1636) were recorded on admission to the ICU. The full cohort meeting these criteria included 1072 Caucasian subjects and 153 Asian subjects.
The primary outcome variable evaluated in this study was 28-day mortality. Various organ dysfunctions were considered as secondary outcome variables. Baseline demographics recorded were age, gender, admission APACHE II score (KNAUS W A. et al. Crit. Care Med (1985) 13:818-829), and medical or surgical diagnosis on admission to the ICU (based on the APACHE III diagnostic codes) (KNAUS W A. et al. Chest (1991) 100:1619-1636) (TABLE 2B).
After meeting the inclusion criteria, data were recorded for each 24-hour period (8 am to 8 am) for 28-days after ICU admission or until hospital discharge to evaluate organ dysfunction, the intensity of SIRS (Systemic Inflammatory Response Syndrome) and sepsis. Raw clinical and laboratory variables were recorded using the worst or most abnormal variable for each 24-hour period with the exception of Glasgow Coma Score, for which the best possible score for each 24-hour period was recorded. Missing data on the date of admission was assigned a normal value and missing data after day one was substituted by carrying forward the value from the previous day. When data collection for each patient was complete, all patient identifiers were removed from all records and the patient file was assigned a unique random number linked with the blood samples. The completed raw data file was used to calculate descriptive and severity of illness scores using standard definitions as described below.
Organ dysfunction was first evaluated at baseline and then daily using the Brussels score (SIBBALD W J. and VINCENT J L. Chest (1995) 107(2):522-7) (see TABLE 2A in General Methods Section). If the Brussels score was moderate, severe, or extreme dysfunction then organ dysfunction was recorded as present on that day. To correct for deaths during the observation period, we calculated the days alive and free of organ dysfunction (RUSSELL J A. et al. Crit. Care Med (2000) 28(10):3405-11 and BERNARD G R. et al. Chest (1997) 112(1):164-72) (TABLE 2C). For example, the severity of cardiovascular dysfunction was assessed by measuring days alive and free of cardiovascular dysfunction over a 28-day observation period. Days alive and free of cardiovascular dysfunction was calculated as the number of days after inclusion that a patient was alive and free of cardiovascular dysfunction over 28-days. Thus, a lower score for days alive and free of cardiovascular dysfunction indicates more cardiovascular dysfunction. The reason that days alive and free of cardiovascular dysfunction is preferable to simply presence or absence of cardiovascular dysfunction is that severe sepsis has a high acute mortality so that early death (within 28-days) precludes calculation of the presence or absence of cardiovascular dysfunction in dead subjects. […]

[1] = steroid-treated, rs7222094 TT (N = 74), Table 4.3 25th percentile/median/75th percentile, Table 4.5 median

hydrocortisone [steroids]
worse survival of steroid-treated than untreated subjects (rs7222094 CC subjects, p=0.02023, Pearson's Chi-square): 15%
28-day survival and organ dysfunction compared to controls (in words) (steroid-treated subjects with rs7222094 CC): lower 28-day survival and more organ dysfunction than controls; also recorded: decreases 28-day survival
28-day survival and organ function compared to controls (in words) (steroid-treated subjects with rs7222094 TT): increased survival and improved organ function; also recorded: improved compared with controls
SURV (28-Day Survival) (steroid-treated, genotypes Combined (N = 355)): 57% (203)
SURV (28-Day Survival) (steroid-treated, rs7222094 CC (N = 122)): 45% (55)
RENAL.DAF (Days alive and free of any type of renal dysfunction) (steroid-treated, rs7222094 CC (N = 122), Table 4.3 25th percentile/median/75th percentile, Table 4.5 median): 0 days
SURV (28-Day Survival) (steroid-treated, rs7222094 TC (N = 159)): 59% (94)
DA (Days alive) [1]: 28 days
INR.DAF (Days alive and free of international normalized ratio >1.5) [1]: 27 days
LIVER.DAF (Days alive and free of any type of hepatic dysfunction) [1]: 28 days
Delta SURV (28-Day Survival) (rs7222094 CC): −15.0
Delta SURV (28-Day Survival) (rs7222094 TC): −7.0
Delta SURV (28-Day Survival) (rs7222094 TT): 3.0
Delta COAG.DAF (Days alive and free of coagulation dysfunction) (rs7222094 CC): -11.5 days
Delta CVS.DAF (Days alive and free of cardiovascular dysfunction) (rs7222094 CC): -1.0 days
Delta DA (Days alive) (rs7222094 CC): -5.0 days
Delta INR.DAF (Days alive and free of international normalized ratio >1.5) (rs7222094 CC): -6.0 days
Delta LIVER.DAF (Days alive and free of any type of hepatic dysfunction) (rs7222094 CC): -6.5 days
Delta PRESS.DAF (Days alive and free of any vasopressors) (rs7222094 CC): -11.0 days
Delta RENAL.DAF (Days alive and free of any type of renal dysfunction) (rs7222094 CC): -4.0 days
Delta RENSUP.DAF (Days alive and free of renal support) (rs7222094 CC): -9.0 days
Delta RESP.DAF (Days alive and free of respiratory dysfunction) (rs7222094 CC): -12.0 days
Delta VENT.DAF (Days alive and free of mechanical ventilators) (rs7222094 CC): -11.0 days
Delta COAG.DAF (Days alive and free of coagulation dysfunction) (rs7222094 TC): -3.0 days
Delta CVS.DAF (Days alive and free of cardiovascular dysfunction) (rs7222094 TC): -0.5 days
Delta DA (Days alive) (rs7222094 TC): 0.0 days
Delta INR.DAF (Days alive and free of international normalized ratio >1.5) (rs7222094 TC): -1.0 days
Delta LIVER.DAF (Days alive and free of any type of hepatic dysfunction) (rs7222094 TC): 0.0 days
Delta PRESS.DAF (Days alive and free of any vasopressors) (rs7222094 TC): -7.0 days
Delta RENAL.DAF (Days alive and free of any type of renal dysfunction) (rs7222094 TC): -9.5 days
Delta RENSUP.DAF (Days alive and free of renal support) (rs7222094 TC): -9.0 days
Delta RESP.DAF (Days alive and free of respiratory dysfunction) (rs7222094 TC): -7.0 days
Delta VENT.DAF (Days alive and free of mechanical ventilators) (rs7222094 TC): -11.0 days
Delta COAG.DAF (Days alive and free of coagulation dysfunction) (rs7222094 TT): -0.5 days
Delta CVS.DAF (Days alive and free of cardiovascular dysfunction) (rs7222094 TT): 1.0 days
Delta DA (Days alive) (rs7222094 TT): 0.0 days
Delta INR.DAF (Days alive and free of international normalized ratio >1.5) (rs7222094 TT): 0.0 days
Delta LIVER.DAF (Days alive and free of any type of hepatic dysfunction) (rs7222094 TT): 0.0 days
Delta PRESS.DAF (Days alive and free of any vasopressors) (rs7222094 TT): -2.0 days
Delta RENAL.DAF (Days alive and free of any type of renal dysfunction) (rs7222094 TT): -5.5 days
Delta RENSUP.DAF (Days alive and free of renal support) (rs7222094 TT): 0.0 days
Delta RESP.DAF (Days alive and free of respiratory dysfunction) (rs7222094 TT): -2.0 days
Delta VENT.DAF (Days alive and free of mechanical ventilators) (rs7222094 TT): -2.0 days
